Numbers after ± are expanded uncertainties.
How the values were obtained:
[1] = for viscosity / mass density: 101.33 kPa; for mass density: Vibrating tube method; for Normal melting temperature: Crystal, DTA; for Glass transition temperature: DSC
[2] = Molar enthalpy of transition or fusion; details: Crystal; DSC
[3] = 278.2 K, Liquid, Concentric cylinders viscometry
[4] = 288.15 K, Liquid, Concentric cylinders viscometry
[5] = 298.15 K, Liquid, Concentric cylinders viscometry
[6] = 308.15 K, Liquid, Concentric cylinders viscometry
[7] = 318.15 K, Liquid, Concentric cylinders viscometry
[8] = 328.15 K, Liquid, Concentric cylinders viscometry
[9] = 338.15 K, Liquid, Concentric cylinders viscometry
[10] = 278.15 K, Liquid, Concentric cylinders viscometry
[11] = 293.15 K, Liquid, Concentric cylinders viscometry
[12] = 303.15 K, Liquid, Concentric cylinders viscometry
[13] = 313.15 K, Liquid, Concentric cylinders viscometry
[14] = 323.15 K, Liquid, Concentric cylinders viscometry
[15] = 333.15 K, Liquid, Concentric cylinders viscometry

SMILES	mass density ([1]; 283.15 K, Liquid)	viscosity [1, 4]	mass density ([1]; 288.15 K, Liquid)	mass density ([1]; 293.15 K, Liquid)	viscosity [1, 5]	mass density ([1]; 298.15 K, Liquid)	mass density ([1]; 303.15 K, Liquid)	mass density ([1]; 308.15 K, Liquid)	mass density ([1]; 313.15 K, Liquid)	Normal melting temperature [1]	Glass transition temperature [1]	Molar enthalpy of transition or fusion [2]	viscosity [1, 10]	viscosity [1, 11]	viscosity [1, 12]	viscosity [1, 13]	viscosity [1, 14]	viscosity [1, 15]	also measured
CCCn1cc[n+](C)c1.O=S(=O)([N-]S(=O)(=O)C(F)(F)F)C(F)(F)F	1490.2 ± 1 kg/m3	64 ± 4 mPa·s	1485.2 ± 1 kg/m3	1480.6 ± 1 kg/m3	43 ± 4 mPa·s	1475.6 ± 1 kg/m3	1470.8 ± 1 kg/m3	1465.8 ± 1 kg/m3	1460.6 ± 1 kg/m3										viscosity [1, 3]: 103 ± 4 mPa·s; viscosity [1, 6]: 30 ± 4 mPa·s; viscosity [1, 7]: 22 ± 4 mPa·s; viscosity [1, 8]: 17 ± 4 mPa·s; viscosity [1, 9]: 13 ± 4 mPa·s
CCCCCC[n+]1ccn(C)c1.O=S(=O)([N-]S(=O)(=O)C(F)(F)F)C(F)(F)F	1386.1 ± 1 kg/m3		1381.5 ± 1 kg/m3	1377.2 ± 1 kg/m3		1372.7 ± 1 kg/m3	1368.3 ± 1 kg/m3	1363.6 ± 1 kg/m3	1358.8 ± 1 kg/m3	-11.2 ± 3.4 °C	-85.7 ± 2.9 °C	1.65 ± 1.53 kcal/mol							
CCCC[n+]1ccn(C)c1.O=S(=O)([N-]S(=O)(=O)C(F)(F)F)C(F)(F)F	1451.2 ± 1 kg/m3		1446.5 ± 1 kg/m3	1441.9 ± 1 kg/m3		1436.9 ± 1 kg/m3	1432.1 ± 1 kg/m3	1427.1 ± 1 kg/m3	1422.6 ± 1 kg/m3	-4.6 ± 3 °C	-88.9 ± 2.9 °C	5.76 ± 0.311 kcal/mol							
CCCCCn1cc[n+](C)c1.O=S(=O)([N-]S(=O)(=O)C(F)(F)F)C(F)(F)F	1417.5 ± 1 kg/m3		1412.9 ± 1 kg/m3	1408.4 ± 1 kg/m3		1403.6 ± 1 kg/m3	1399 ± 1 kg/m3	1393.9 ± 1 kg/m3	1389.3 ± 1 kg/m3										
CC(C)[n+]1ccn(C)c1.O=S(=O)([N-]S(=O)(=O)C(F)(F)F)C(F)(F)F	1492.2 ± 1 kg/m3	75 ± 4 mPa·s	1487.2 ± 1 kg/m3	1482.5 ± 1 kg/m3	48 ± 4 mPa·s	1477.6 ± 1 kg/m3	1472.8 ± 1 kg/m3	1467.8 ± 1 kg/m3	1462.6 ± 1 kg/m3	9.0 ± 3.4 °C	-83 ± 2.9 °C	5.71 ± 0.406 kcal/mol	122 ± 4 mPa·s	59 ± 4 mPa·s	39 ± 4 mPa·s	28 ± 4 mPa·s	21 ± 4 mPa·s	16 ± 4 mPa·s	
CC(C)CCCn1cc[n+](C)c1.O=S(=O)([N-]S(=O)(=O)C(F)(F)F)C(F)(F)F	1385.9 ± 1 kg/m3	137 ± 4 mPa·s	1381.3 ± 1 kg/m3	1377 ± 1 kg/m3	85 ± 4 mPa·s	1372.4 ± 1 kg/m3	1367.9 ± 1 kg/m3	1363.3 ± 1 kg/m3	1358.5 ± 1 kg/m3	3.2 ± 3.4 °C	-81 ± 2.9 °C	0.0239 kcal/mol	237 ± 6 mPa·s	107 ± 4 mPa·s	69 ± 4 mPa·s	45 ± 4 mPa·s	32 ± 4 mPa·s	23 ± 4 mPa·s	
CC(C)CCCCn1cc[n+](C)c1.O=S(=O)([N-]S(=O)(=O)C(F)(F)F)C(F)(F)F	1357.5 ± 1 kg/m3		1353 ± 1 kg/m3	1348.7 ± 1 kg/m3		1344.2 ± 1 kg/m3	1339.8 ± 1 kg/m3	1335.2 ± 1 kg/m3	1330.6 ± 1 kg/m3	11.2 ± 3.4 °C	-81.3 ± 2.9 °C	0.12 ± 0.382 kcal/mol							viscosity ([1]; 278.15 K, Metastable liquid, Concentric cylinders viscometry): 306 ± 8 mPa·s; viscosity ([1]; 288.15 K, Concentric cylinders viscometry, Liquid): 164 ± 5 mPa·s; viscosity ([1]; 293.15 K, Concentric cylinders viscometry, Liquid): 124 ± 4 mPa·s; viscosity ([1]; 298.15 K, Concentric cylinders viscometry, Liquid): 96 ± 4 mPa·s; viscosity ([1]; 303.15 K, Concentric cylinders viscometry, Liquid): 76 ± 4 mPa·s; viscosity ([1]; 313.15 K, Concentric cylinders viscometry, Liquid): 50 ± 4 mPa·s; viscosity ([1]; 323.15 K, Concentric cylinders viscometry, Liquid): 35 ± 4 mPa·s; viscosity ([1]; 333.15 K, Concentric cylinders viscometry, Liquid): 25 ± 4 mPa·s
CCCCCCCn1cc[n+](C)c1.O=S(=O)([N-]S(=O)(=O)C(F)(F)F)C(F)(F)F	1358.4 ± 1 kg/m3	132 ± 4 mPa·s	1354.1 ± 1 kg/m3	1349.8 ± 1 kg/m3	82 ± 4 mPa·s	1345.4 ± 1 kg/m3	1341 ± 1 kg/m3	1336.4 ± 1 kg/m3	1331.6 ± 1 kg/m3	-0.9 ± 3.4 °C	-85.4 ± 2.9 °C	0.0956 ± 0.382 kcal/mol							viscosity [1, 3]: 234 ± 6 mPa·s; viscosity [1, 6]: 54 ± 4 mPa·s; viscosity [1, 7]: 37 ± 4 mPa·s; viscosity [1, 8]: 27 ± 4 mPa·s; viscosity [1, 9]: 20 ± 4 mPa·s
CC(C)CCn1cc[n+](C)c1.O=S(=O)([N-]S(=O)(=O)C(F)(F)F)C(F)(F)F	1417.5 ± 1 kg/m3	112 ± 4 mPa·s	1412.7 ± 1 kg/m3	1408.1 ± 1 kg/m3	69 ± 4 mPa·s	1403.3 ± 1 kg/m3	1398.5 ± 1 kg/m3	1393.7 ± 1 kg/m3	1388.7 ± 1 kg/m3	-0.0 ± 3.4 °C	-83.7 ± 2.9 °C	0.0239 kcal/mol	195 ± 5 mPa·s	86 ± 4 mPa·s	56 ± 4 mPa·s	38 ± 4 mPa·s	27 ± 4 mPa·s	20 ± 4 mPa·s	
CC(C)Cn1cc[n+](C)c1.O=S(=O)([N-]S(=O)(=O)C(F)(F)F)C(F)(F)F	1450.3 ± 1 kg/m3		1445.6 ± 1 kg/m3	1441.1 ± 1 kg/m3		1436.3 ± 1 kg/m3	1431.6 ± 1 kg/m3	1426.6 ± 1 kg/m3	1421.9 ± 1 kg/m3	-16.2 ± 3.4 °C	-81.2 ± 2.9 °C	1.63 ± 0.382 kcal/mol							viscosity ([1]; 278.15 K, Liquid): 244 mPa·s; viscosity ([1]; 288.15 K, Liquid): 132 mPa·s; viscosity ([1]; 293.15 K, Liquid): 103 mPa·s; viscosity ([1]; 298.15 K, Liquid): 79 ± 32 mPa·s; viscosity ([1]; 303.15 K, Liquid): 61 ± 11 mPa·s; viscosity ([1]; 313.15 K, Liquid): 40 ± 8 mPa·s; viscosity ([1]; 323.15 K, Liquid): 28 ± 7 mPa·s; viscosity ([1]; 333.15 K, Liquid): 20 ± 6 mPa·s
